The values below come from patent publication US20110306606A1, “NOVEL 2,6-SUBSTITUTED-3-NITROPYRIDINE DERIVATIVE, METHOD FOR PREPARING SAME, AND PHARMACEUTICAL COMPOSITION INCLUDING SAME” (priority 2008, published 2011).

The test system of data set [1] is Osteoblasts (Calvarial cells). The experiment in a line: Alkaline phosphatase (ALP) activity in osteoblasts (Calvarial cells). It counts as cell-based, mice. Conditions: 1 μM compound, 3 days; for activity at 1 µM: Mus musculus, 72 h, Calvarial cell, read-out: ALP activity (1 μM, % of Control) Calvarial cell. The essentials:
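Primary calvarial osteoblasts or MC3T3-E1 cells in α-MEM with 10% FBS were treated with 1 μM compound, against a 0.1% DMSO vehicle. Cell lysates were incubated with p-nitrophenylphosphate at 37° for 30 minutes and read at 405 nm. ALP activity was expressed as p-nitrophenol/μg protein/min and reported as % change versus vehicle.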

In data set [2] the test system is formation of osteoclasts in co-culture of bone marrow cells and osteoblasts. Kind of data set: Osteoclastogenesis inhibition via co-culture system (TRAP staining). The format is cell-based, mice. The following applies: 1 μM compound, 7 days co-culture, TRAP-positive multinucleated osteoclasts vs vehicle control; for inhibition at 1 µM: Mus musculus, Osteoclast, 168 h. The method in brief: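 Bone marrow cells from male ddY mice were co-cultured with osteoblasts for 7 days in α-MEM/10% FBS with 10^−8 M 1α,25-dihydroxyvitamin D3 and dexamethasone. Compound was present at 1 μM final and refreshed every 2–3 days. TRAP-positive cells with 6–7 nuclei were counted, with % inhibition relative to DMSO vehicle (n=4).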

Data set [3] deals with Osteoblasts (Calvarial cells). Conditions: ICR, mouse, 72 h, 1 μM.
The next data set relates to MC3T3-E1 cells. Kind of data set: Alkaline phosphatase (ALP) activity in MC3T3-E1 cells. Conditions: 1 μM compound, 3 days. It counts as cell-based. The method, then:
Differentiation and activity of osteoblasts were indirectly evaluated by measuring an ALP activity having a close relationship with osteogenesis.
Osteoblasts (Calvarial cells) prepared in Experimental Example 1 and MC3T3-E1 cells (available from RIKEN Cell Bank, Japan) were collected in α-MEM supplemented with 10% FBS, followed by cell counting. The cells were dispensed into 24-well cultureware at a density of 2×10^4 cells/well. After culturing of the cells for 24 hours, the culture media were discarded and replaced with fresh media in which test compounds were diluted to a concentration of 1 μM (1 mL/well). In addition, the vehicle control group containing 0.1% DMSO was also treated. […] When the experiment was terminated, the supernatant was removed and the cells were washed three times with cold phosphate buffer at 4°. 0.2% Triton X-100 was added to the washed cells which were then subjected to three cycles of freezing at −70° and thawing at room temperature for the complete lysis of cells. The cell extracts were pooled and centrifuged to collect the cell supernatant which was used for the measurement of ALP activity and proteins. The protein concentration was measured using a BCA assay kit (manufactured by Sigma-Aldrich). For the measurement of ALP activity, p-nitrophenylphosphate was added to the cell supernatant which was then incubated at 37° for 30 minutes, and the reaction was terminated with the addition of 50 μL of 0.2N sodium hydroxide. The standard curve was plotted at the absorbance of 405 nm using p-nitrophenol as a standard material and then the absorbance of test materials thus reacted was measured to determine the production amount of p-nitrophenol.
The ALP activity was calculated by dividing the amount of p-nitrophenol produced from each test material by the protein amount and the reaction time. Therefore, the unit of ALP activity was given in terms of p-nitrophenol/μg protein/min. The results are given in Tables 28-1 and 28-2 where the ALP activity unit of each test material was given in terms of % change through the comparison between the individual test materials and the vehicle control group.

The subject of data set [4] is Osteoblasts (Calvarial cells). Kind of data set: Cytotoxicity test (MTT). Conditions: 1 μM compound, 72 hours, in comparison with vehicle control.

Values joined by “and” are separate entries in the source; they are usually repeats but may differ in a detail not shown here. Equal entries are not always repeated. Where two headings read alike, the source gives them in different places.

`Cc1ccc(Nc2nc(N3CCC(N)CC3)ccc2[N+](=O)[O-])cc1` [Compound 13, 2-(4-methylphenylamino)-6-(4-aminopiperidino)-3-nitropyridine]: the activity at 1 µM in data set [1] was determined as 115%. This molecule had an inhibition at 1 µM in data set [2] of 92%. Besides, the “Cell viability (%) Calvarial cell” value in data set [3] came to 97%.
On to `COc1ccc(Nc2nc(N(C)CC3OCCO3)ccc2[N+](=O)[O-])cc1` [Compound 18, 2-(4-methoxyphenylamino)-6-[(N-[1,3]-dioxolan-2-ylmethyl)methylamino]-3-nitropyridine], for which, in the data set with MC3T3-E1 cells, the “ALP activity (1 μM, % of Control) MC3T3-E1 cell” value is given as 113 % of Control. Further, the “Cell viability (%) Calvarial cell” value in data set [4] was 91%.
On to `COc1ccc(Nc2nc(N3CCN=C3C)ccc2[N+](=O)[O-])cc1` [Compound 20, 2-(4-methoxyphenylamino)-6-[(2-methyl-4,5-dihydro)imidazol-1-yl]-3-nitropyridine], for which the “ALP activity (1 μM, % of Control) MC3T3-E1 cell” value in the data set with MC3T3-E1 cells is given as 124 % of Control.
For `CC(C)(C)c1ccc(Nc2nc(N3CCC(N)CC3)ccc2[N+](=O)[O-])cc1` [Compound 43, 2-[4-(t-butyl)phenylamino]-6-(4-aminopiperidino)-3-nitropyridine], the activity at 1 µM in data set [1] was 121%. In data set [2], this molecule had an inhibition at 1 µM of 100%. The “Cell viability (%) Calvarial cell” value in data set [3] is listed as 114%.
`CC(C)CNc1ccc([N+](=O)[O-])c(Nc2ccc(N)cc2)n1` [Compound 59, 2-[4-(amino)phenylamino]-6-(isobutylamino)-3-nitropyridine]: the activity at 1 µM in data set [1] was determined as 115%. In addition, at 1 µM the inhibition in data set [2] was 81%. In addition, the “Cell viability (%) Calvarial cell” value in data set [3] is on record as 99%.
Taken in the same sequence, the figures for `CC(=O)c1cccc(Nc2nc(NC(C)C)ccc2[N+](=O)[O-])c1` [Compound 97, 2-(3-acetylphenylamino)-6-(isopropylamino)-3-nitropyridine] were 188%, 80% and 114%.
In the case of `CC(=O)c1cccc(Nc2nc(N3CCN=C3C)ccc2[N+](=O)[O-])c1` [Compound 100, 2-(3-acetylphenylamino)-6-[(2-methyl-4,5-dihydro)imidazol-1-yl]-3-nitropyridine], in the data set on MC3T3-E1 cells, the “ALP activity (1 μM, % of Control) MC3T3-E1 cell” value is listed as 126 % of Control. In addition, the “Cell viability (%) Calvarial cell” value in data set [4] is listed as 91%.
`CC(=O)c1cccc(Nc2nc(N3CCNCC3)ccc2[N+](=O)[O-])c1` [Compound 106, 2-(3-acetylphenylamino)-6-(piperazin-1-yl)-3-nitropyridine]: the activity at 1 µM in data set [1] amounted to 116%. Further, at 1 µM the inhibition in data set [2] was 87%. In data set [3], the “Cell viability (%) Calvarial cell” value was 81%.
On the same counts, the results for `O=[N+]([O-])c1ccc(N2CCNCC2)nc1Nc1ccc(N2CCOCC2)cc1` [Compound 120, 2-(4-morpholinophenylamino)-6-(piperazin-1-yl)-3-nitropyridine] are 115%, 63% and 94%.
On the same counts, the results for `NC1CCN(c2ccc([N+](=O)[O-])c(Nc3ccc(N4CCOCC4)cc3)n2)CC1` [Compound 121, 2-(4-morpholinophenylamino)-6-(4-aminopiperidino)-3-nitropyridine] are 127%, 89% and 100%.
On the same counts, the results for `CNc1ccc([N+](=O)[O-])c(Nc2ccc(-c3csc(C)n3)cc2)n1` [Compound 132, 2-[4-(2-methylthiazol-4-yl)phenylamino]-6-(methylamino)-3-nitropyridine] are 198%, 80% and 101%.
Turning to `Cc1nc(-c2ccc(Nc3nc(N4CCC(O)CC4)ccc3[N+](=O)[O-])cc2)cs1` [Compound 135, 2-[4-(2-methylthiazol-4-yl)phenylamino]-6-(4-hydroxypiperidino)-3-nitropyridine], in data set [1], the activity at 1 µM amounted to 113%. In data set [2], this molecule gave an inhibition at 1 µM of 93%. The “Cell viability (%) Calvarial cell” value in data set [3] was determined as 106%.
On the same counts, the results for `Cc1nc(-c2ccc(Nc3nc(NCc4cccnc4)ccc3[N+](=O)[O-])cc2)cs1` [Compound 138, 2-[4-(2-methylthiazol-4-yl)phenylamino]-6-[(3-pyridyl)methylamino]-3-nitropyridine] are 121%, 98% and 94%.
Taken in the same sequence, the figures for `Cc1nc(-c2ccc(Nc3nc(NCc4ccncc4)ccc3[N+](=O)[O-])cc2)cs1` [Compound 139, 2-[4-(2-methylthiazol-4-yl)phenylamino]-6-[(4-pyridyl)methylamino]-3-nitropyridine] were 122%, 99% and 95%.
On the same counts, the results for `Cc1nc(-c2ccc(Nc3nc(N4CCOCC4)ccc3[N+](=O)[O-])cc2)cs1` [Compound 145, 2-[4-(2-methylthiazol-4-yl)phenylamino]-6-morpholino-3-nitropyridine] are 117%, 94% and 96%.
As for `CC1=NCCN1c1ccc([N+](=O)[O-])c(Nc2ccc(N3CCCCC3)c(F)c2)n1` [Compound 227, 2-[(3-fluoro-4-piperidino)phenylamino]-6-[(2-methyl-4,5-dihydro)imidazol-1-yl]-3-nitropyridine], the “ALP activity (1 μM, % of Control) Calvarial cell” value in data set [1] was 122 % of Control. Also, the “Cell viability (%) Calvarial cell” value in data set [4] is listed as 103%. For the same molecule, in data set [2], the “Osteoclastogenesis inhibition (%) 1 μM” value came out at 65%.
Regarding `O=[N+]([O-])c1ccc(NCc2cccnc2)nc1Nc1ccc(N2CCCCC2)c(F)c1` [Compound 229, 2-[(3-fluoro-4-piperidino)phenylamino]-6-[(3-pyridyl)methylamino]-3-nitropyridine], the “ALP activity (1 μM, % of Control) Calvarial cell” value in data set [1] was 114 % of Control. In data set [4], the “Cell viability (%) Calvarial cell” value is 104% and 125%. The “Osteoclastogenesis inhibition (%) 1 μM” value in data set [2] is given as 97%.
Regarding `O=[N+]([O-])c1ccc(NCc2ccncc2)nc1Nc1ccc(N2CCCCC2)c(F)c1` [Compound 230, 2-[(3-fluoro-4-piperidino)phenylamino]-6-[(4-pyridyl)methylamino]-3-nitropyridine], in data set [1], the “ALP activity (1 μM, % of Control) Calvarial cell” value is reported as 120 % of Control. Further, in data set [4], the “Cell viability (%) Calvarial cell” value is on record as 101%. In data set [2], the “Osteoclastogenesis inhibition (%) 1 μM” value is reported as 93%.
Take `CC(C)(C)Nc1ccc([N+](=O)[O-])c(Nc2ccc(N3CCCCC3)c(F)c2)n1` [Compound 231, 2-[(3-fluoro-4-piperidino)phenylamino]-6-(t-butylamino)-3-nitropyridine]: in data set [1], the “ALP activity (1 μM, % of Control) Calvarial cell” value is recorded as 121 % of Control. Besides, the “Cell viability (%) Calvarial cell” value in data set [4] was 112%. For the same molecule, in data set [2], the “Osteoclastogenesis inhibition (%) 1 μM” value was 82%.
On the same counts, the results for `O=[N+]([O-])c1ccc(N2CCOCC2)nc1Nc1ccc(N2CCCCC2)c(F)c1` [Compound 235, 2-[(3-fluoro-4-piperidino)phenylamino]-6-morpholino-3-nitropyridine] are 121 % of Control, 105% and 86%.
Taken in the same sequence, the figures for `CNc1ccc([N+](=O)[O-])c(Nc2ccc(N3CCC(O)CC3)c(F)c2)n1` [Compound 236, 2-{[3-fluoro-4-(4-hydroxypiperidino)]phenylamino}-6-(methylamino)-3-nitropyridine] were 209 % of Control, 91% and 76%.
On the same counts, the results for `CN1CCN(c2ccc([N+](=O)[O-])c(Nc3ccc(N4CCC(O)CC4)c(F)c3)n2)CC1` [Compound 244, 2-{[3-fluoro-4-(4-hydroxypiperidino)]phenylamino}-6-(4-methylpiperazin-1-yl)-3-nitropyridine] are 118 % of Control, 99% and 62%.

For orientation: inhibition means the drop in the measured response relative to a control, in per cent. High values mean strong suppression, low ones little suppression.
